Source: ChEMBL document CHEMBL1201862, “PubChem BioAssay data set” (2004)
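Method: 48-hour compound exposure of cells in 96-well plates, five concentrations, linear interpolation of endpoints. GI50 = concentration required for 50% inhibition of growth.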 Active and inactive are the calls of the source. Rule as the data show it: active = GI50 up to about 1.1 µM and inactive = higher.

Tests used:
Test in all cases: inhibition of tumour cell growth, NCI panel, 48 h
[1] = test system: A498
[2] = test system: EKVX
[3] = test system: HCC 2998
[4] = test system: HT-29
[5] = test system: IGROV-1
[6] = test system: K562
[7] = test system: LOX IMVI
[8] = test system: LXFL 529
[9] = test system: NCI-H460
[10] = test system: OVCAR-3
[11] = test system: OVCAR-8
[12] = test system: SK-MEL-5
[13] = test system: SR
[14] = test system: TK-10
[15] = test system: UO-31
[16] = test system: HOP-62
[17] = test system: CCRF-CEM

Measured: GI50

[O-][S+]1Cc2ccccc2CSS1 (centres undefined)
inactive: [1] 56.5 µM | [2] 25.2 µM | [3] 26.1 µM | [4] 14.4 µM | [5] 29.2 µM | [6] 12.3 µM | [7] 3.96 µM | [8] 14.1 µM | [9] 16.8 µM | [10] 15.1 µM | [11] 14.5 µM | [12] 13.5 µM | [13] 13.9 µM | [14] 16.8 µM | [15] 17.9 µM

O=C(c1ccccc1)[C@H]1Nc2ccc(Cl)cc2[C@H]2c3ccccc3O[C@H]21
inactive: [1] 12.1 µM | [2] 15.2 µM | [3] 16.8 µM | [16] 18.1 µM | [4] 12.7 µM | [5] 17.7 µM | [6] 14.5 µM | [7] 20.7 µM | [8] 15 µM | [9] 16.5 µM | [10] 13.1 µM | [11] 16.4 µM | [12] 13.2 µM | [13] 16.5 µM | [14] 16.7 µM | [15] 5.27 µM

COc1ccc(C2(CN(C)C)COc3cc(OC)c(OC)cc3C2=O)cc1OC (centres undefined)
inactive: [1] 74.8 µM | [17] 19.6 µM | [2] > 100 µM | [3] > 100 µM | [16] > 100 µM | [4] 46.7 µM | [5] > 100 µM | [6] 31.6 µM | [7] 16.6 µM | [8] 20.1 µM | [9] 33.9 µM | [10] 86.7 µM | [11] 53.1 µM | [12] 24.1 µM | [13] 30.6 µM | [14] 63.5 µM | [15] 44.8 µM

O=C1CC[C@@H](NC(=O)Cc2ccccc2)C(=O)N1
inactive: [1] > 100 µM | [17] > 100 µM | [2] > 100 µM | [3] > 100 µM | [16] > 100 µM | [4] > 100 µM | [5] > 100 µM | [6] > 100 µM | [7] > 100 µM | [8] > 100 µM | [9] > 100 µM | [10] > 100 µM | [11] > 100 µM | [12] > 100 µM | [13] > 100 µM | [14] > 100 µM | [15] > 100 µM

CO[C@H]1CC[C@]2(C)C3=CC[C@@]4(C)C(CC[C@@H]4C(C)CC[C@@H](C)C(C)C)C(=CCC2C1)O3 (some centres undefined)
inactive: [1] > 25 µM | [17] > 25 µM | [2] > 25 µM | [3] > 25 µM | [16] > 25 µM | [4] > 25 µM | [5] > 25 µM | [6] > 25 µM | [7] > 25 µM | [8] > 25 µM | [9] > 25 µM | [10] > 25 µM | [11] > 25 µM | [12] > 25 µM | [13] > 25 µM | [14] > 25 µM | [15] > 25 µM

COC1=CC(=O)C2C(C1=O)C(c1ccccc1)[C@H]2C (some centres undefined)
inactive: [1] > 100 µM | [17] 28.4 µM | [2] > 100 µM | [3] > 100 µM | [16] > 100 µM | [4] > 100 µM | [5] > 100 µM | [6] 34.4 µM | [7] > 100 µM | [8] 37.2 µM | [9] > 100 µM | [10] 87.1 µM | [11] 45.6 µM | [12] 80 µM | [13] 31.6 µM | [14] > 100 µM | [15] > 100 µM
